Test results published in patent US20240301409A1, “Chemically Modified Small Activating RNA” (RACTIGEN THERAPEUTICS, priority 2021, published 2024).

System: p21 gene
Experiment: p21 mRNA expression by RT-qPCR in T24 cells
Assay type: cell-based, human
Conditions: 10 nM
Description: Ku-7-LG and T24 cells were transfected with the indicated saRNA at a final concentration of 10 nM for 3 days. After transfection, the RNA was extracted with the Qiagen RNeasy kit. After reverse transcription, the ABI 7500 fast real-time PCR system was used for qPCR amplification. The GAPDH gene was amplified as an internal reference. […] Dashed line indicates duplex Rag1-40 with no chemical modification in comparison, and the values above the line indicate stronger activity. The control was blank transfection without oligonucleotide. dsCon2 is transfected with a double-stranded scramble RNA. The value of the ordinate represents the mean±SD of 2 repeated treatments.
The control and dsCon2 were blank transfection and scramble dsRNA transfection, respectively. The values in the ordinate represent the mean±SD of 2 repeated treatments.
Human bladder cancer cells Ku-7-LG (ATCC), J82 (ATCC) and T24 (ATCC) were cultured in McCoy medium (Gibco) comprising 10% calf serum (Sigma-Aldrich) and 1% penicillin/Streptomycin (Gibco). Cells were cultured at 37° C. under 5% CO2. Ku-7-LG, J82 and T24 cells were plated into 12-well plates at 10×10^4 cells per well, transfected with the small RNA at a concentration of 10 nM (unless otherwise specified) for three days, using RNAiMax (Invitrogen, Carlsbad, CA) according to the manufacturer's instructions. Two replicate wells were set for each treatment.
After transfection, the medium was discarded and to each well 500 μl cell lysate was added and incubated at room temperature for 5 minutes. RNA was extracted with the Qiagen RNeasy kit, and after reverse transcription, qPCR analysis was performed on the ABI 7500 Fast Real-time PCR system (Applied Biosystems). Each sample was amplified in 3 replicate wells.
The PCR reaction conditions are: 95° C. for 30 seconds, 95° C. for 5 seconds, 60° C. for 30 seconds, and 40 cycles of amplification. The GAPDH gene was amplified as an internal reference at the same time. p21 was amplified with the p21F1/R1 primer pair, and the specific sequences of the amplification primers are shown in Table 1.
In order to calculate the expression value (Erel) of p21 (target gene) of a saRNA transfection sample relative to the control treatment, Formula 1 is used to input the Ct values of the target gene and the internal reference gene for calculation.
wherein, CtTm is the Ct value of the target gene from the control treatment sample; CtTs is the Ct value of the target gene from the saRNA treated sample; CtRm is the Ct value of the internal reference gene from the control treatment sample; and CtRs is the Ct value of the internal reference gene from the saRNA treated sample.
The main purpose of introducing chemical modifications to regulatory oligonucleotides of a gene is to improve their pharmaceutical properties, including enhancing in vivo stability and mitigating off-target effects (e.g., sequence-dependent targeting of unrelated genes, sequence-dependent or independent immune stimulation), while maintaining their gene regulatory capacity (gene knockdown or activation). To assess the effect of chemical modification on the RNAa activity of saRNA on the p21 gene, 10 nM unmodified (Rag1-40) and modified (Rag1-40-1 to Rag1-40-34) duplexes were transfected into Ku-7-LG and T24 cells, respectively. After 72 hours, the mRNA expression level of p21 was assessed by RT-qPCR. All duplexes induced p21 mRNA expression in all […] at least double that of the control.
In order to further evaluate the expression level of p21 mRNA after the different durations of treatment by the chemically modified saRNA duplexes, two saRNAs (RAG1-40-31 and RAG1-40-53) were randomly selected from the above chemically modified saRNA duplexes for detection. RAG1-40-31 and RAG1-40-53 were transfected into Ku-7-LG and T24 cells at a final concentration of 10 nM, for 1, 2, 3, 4, 7 and 9 days, respectively. Each treatment was set up in duplicate. […]

## RAG1-40-31: saRNA duplex: sense fCfCAACUCAUUCUCCAAG*U*C (SEQ ID NO 16); antisense U*A*fCfUfUGGAGAAfUGAGfUfUGG*fC*A (SEQ ID NO 12) (sense CCAACUCAUUCUCCAAGUC; antisense UACUUGGAGAAUGAGUUGGCA; 2'-F and phosphorothioate modifications; modified_base (1)..(2) (1,2)=2′-fluoro; modified_base (17)..(19) (17,18,19)=phosphorothioate (PS) backbone modification; modified_base (2)..(21) (2,3,19,20,21)=phosphorothioate (PS) backbone modification; modified_base (3)..(20) (3,4,5,12,16,17,20)=2′-fluoro)
1 day
  increase of expression level of p21 mRNA compared with the control group: 2.1 fold
2 days
  increase of expression level of p21 mRNA compared with the control group: 3.7 fold
3 days
  increase of expression level of p21 mRNA compared with the control group: 4.7 fold
72 hours, compared with unmodified Rag1-40 unless worded otherwise
  RNA activation activity (p21 mRNA), in words: reduced activity
4 days
  increase of expression level of p21 mRNA compared with the control group: 3.3 fold
7 days
  increase of expression level of p21 mRNA compared with the control group: 1.2 fold
9 days
  increase of expression level of p21 mRNA compared with the control group: 1.3 fold
